According to patent publication US5432165A, “Methods for the treatment of infection caused by Hepatitis B virus (HBV)” (priority 1992, dated 1995):
“And” between values parts separate entries of the source, which are not always exact repeats. Equal values may be shown once.

Assays:
[1] = Stability in an acid environment; format: physicochemical; settings: such as is found in the human stomach
hepatitis B virus = assay: Oral FIAU in immune-competent patients with chronic hepatitis B: HBV DNA and HBV DNA polymerase; format: in vivo, human; settings: for Number HBeAg-negative at latest follow-up: 6 patients with 1 month follow-up
Procedure: To assess the antiviral activity of FIAU against hepatitis B virus, up to 24 patients with chronic hepatitis B will be treated with oral FIAU in doses of 0.05, 0.10, 0.25 or 0.50 mg/kg-day in three divided doses daily for four weeks. Six patients, of which only three can be previous interferon failures, will be initially dosed at 0.10 mg/kg-day. Depending on tolerance and efficacy, the next six patients will be entered at 0.05 or 0.25 mg/kg-day.
This study is an open and uncontrolled evaluation of oral FIAU in the treatment of chronic hepatitis B. Up to four dose cohorts of six patients each will be sequentially studied starting at 0.10 mg/kg-day. Patients will take the medication three times per day for four weeks. Depending on efficacy and tolerance, the next dose cohort will be either 0.05 or 0.25 mg/kg-day.
Patients who meet the eligibility criteria will start on therapy, generally as outpatients one to two weeks after the in-hospital evaluation. Up to four doses will be sequentially evaluated. The initial six patients will receive 0.10 mg/kg-day for four weeks.
If tolerance is adequate at 0.10 mg/kg-day, six patients will receive 0.25 mg/kg-day for four weeks. The final six patients will receive 0.50 mg/kg-day for four weeks if needed for better efficacy and if tolerance has been adequate at the lower doses.
The FIAU will be administered by mouth in three equally divided doses daily. FIAU is provided as a 1 mg/ml syrup. Patients will be instructed on how to measure and self-administer the FIAU solution using oral dosing syringes. Dosing compliance will be monitored by measuring the residual FIAU solution returned at the weekly outpatient visit.
Activity of FIAU against hepatitis B virus will be assessed by monitoring levels of HBV DNA. An inhibition of HBV DNA activity of at least about 50% by the fourth week of treatment will be considered significant antiviral activity. The dose levels of FIAU will be compared based upon the degree of inhibition of serum levels of HBV DNA.

HSV-1 = settings: read-out: in vitro ED90; cited from earlier work
[2] = typical; read-out: cellular toxicity concentration (ID50); cited from earlier work
[3] = 0.1 mpk, Day 1 (initial level), individual patients 1A-6A
[4] = 0.1 mpk, Day 3, individual patients 1A-6A
[5] = 0.1 mpk, Day 8, individual patients 1A-6A
[6] = 0.1 mpk, Week 2, individual patients 1A-6A
[7] = 0.1 mpk, Week 3, individual patients 1A-6A
[8] = 0.1 mpk, Week 4, individual patients 1A-6A
[9] = 0.1 mpk, Week 5 (after 4-week treatment), individual patients 1A-6A
[10] = 0.25 mpk, Day 1 (initial level), individual patients 1B-6B
[11] = 0.25 mpk, Day 3, individual patients 1B-6B
[12] = 0.25 mpk, Day 8, individual patients 1B-6B
[13] = 0.25 mpk, Week 2, individual patients 1B-6B

O=c1[nH]c(=O)n([C@@H]2O[C@H](CO)[C@@H](O)[C@@H]2F)cc1I [FIAU, 1-(2'-deoxy-2'-fluoro-β-D-arabinofuranosyl)-5-iodouracil]
stability in an acid environment [1]: stable in an acid environment
mean reduction of HBV DNA serum level from initial levels at Week 4 (hepatitis B virus; 0.05 mpk): 30%
Number HBeAg-negative at latest follow-up (hepatitis B virus; 0.05 mpk): 0
HBV DNA Polymerase (cpm) (hepatitis B virus; 0.05 mpk, Day 1 (initial level), individual patients 1C, 2C): 1,318 cpm and 3,365 cpm
HBV DNA Polymerase (cpm) (hepatitis B virus; 0.05 mpk, Day 3, individual patients 1C, 2C): 748 cpm and 1,509 cpm
HBV DNA Polymerase (cpm) (hepatitis B virus; 0.05 mpk, Day 8, individual patients 1C, 2C): 348 cpm and 908 cpm
Mean % change of HBV DNA at Week 4 of FIAU (hepatitis B virus; 0.05 mpk, n = 4): -31%
mean reduction of HBV DNA serum level from initial levels at Week 4 (hepatitis B virus; 0.1 mpk): 88%
Number HBeAg-negative at latest follow-up (hepatitis B virus; 0.1 mpk): 0
HBV DNA (hepatitis B virus; [3]): 68.1 pg/mL and 306.2 pg/mL and 307.7 pg/mL and 18.1 pg/mL and 71.3 pg/mL and 172.6 pg/mL
HBV DNA Polymerase (cpm) (hepatitis B virus; [3]): 1208 cpm and 3340 cpm and 3,000 cpm and 1,500 cpm and 1,174 cpm
HBV DNA (hepatitis B virus; [4]): 23.2 pg/mL and 110.6 pg/mL and 208.7 pg/mL and 12.3 pg/mL and 27.8 pg/mL and 75.6 pg/mL
HBV DNA Polymerase (cpm) (hepatitis B virus; [4]): 348 cpm and 721 cpm and 1,550 cpm and 440 cpm and 251 cpm and 610 cpm
HBV DNA (hepatitis B virus; [5]): 16.8 pg/mL and 100.1 pg/mL and 178.8 pg/mL and 8.8 pg/mL and 9.7 pg/mL and 27.6 pg/mL
HBV DNA Polymerase (cpm) (hepatitis B virus; [5]): 119 cpm and 550 cpm and 843 cpm and 164 cpm and 145 cpm and 169 cpm
HBV DNA (hepatitis B virus; 0.1 mpk, Month 1 (follow-up), individual patients 1A-6A): 4.3 pg/mL and 4.8 pg/mL and 34.2 pg/mL and 4.4 pg/mL and 18.6 pg/mL and 138.5 pg/mL
HBV DNA (hepatitis B virus; 0.1 mpk, Month 2 (follow-up), individual patients 1A-6A): 13.8 pg/mL and 11.7 pg/mL and 58.4 pg/mL and 5.9 pg/mL and 26.1 pg/mL and 172.9 pg/mL
HBV DNA (hepatitis B virus; [6]): 9.3 pg/mL and 94.5 pg/mL and 223.2 pg/mL and 7.3 pg/mL and 17.9 pg/mL and 25.2 pg/mL
HBV DNA Polymerase (cpm) (hepatitis B virus; [6]): 90 cpm and 507 cpm and 977 cpm and 118 cpm and 136 cpm and 142 cpm
HBV DNA (hepatitis B virus; [7]): 6.4 pg/mL and 42.2 pg/mL and 122.1 pg/mL and 3.2 pg/mL and 9.0 pg/mL and 22.8 pg/mL
HBV DNA Polymerase (cpm) (hepatitis B virus; [7]): 144 cpm and 360 cpm and 303 cpm and 69 cpm and 86 cpm and 148 cpm
HBV DNA (hepatitis B virus; [8]): 0.0 pg/mL and 31.4 pg/mL and 78.3 pg/mL and 2.5 pg/mL and 7.4 pg/mL and 21.8 pg/mL
HBV DNA Polymerase (cpm) (hepatitis B virus; [8]): 93 cpm and 205 cpm and 310 cpm and 74 cpm and 99 cpm and 165 cpm
HBV DNA (hepatitis B virus; [9]): 4.1 pg/mL and 42.4 pg/mL and 76.1 pg/mL and 8.7 pg/mL and 21.9 pg/mL and 67.9 pg/mL
HBV DNA Polymerase (cpm) (hepatitis B virus; [9]): 84 cpm and 368 cpm and 657 cpm and 169 cpm and 127 cpm and 324 cpm
Mean % change of HBV DNA at Week 4 of FIAU (hepatitis B virus; 0.1 mpk, n = 6): -88%
mean reduction of HBV DNA serum level from initial levels at Week 4 (hepatitis B virus; 0.25 mpk): 84%
patients who "sero-converted" (failed to exhibit hepatitis B surface antigen) (hepatitis B virus; 0.25 mpk): 2 of 6
Number HBeAg-negative at latest follow-up (hepatitis B virus; 0.25 mpk): 2
HBV DNA (hepatitis B virus; [10]): 975.8 pg/mL and 63.9 pg/mL and 799.1 pg/mL and 196.3 pg/mL and 110.3 pg/mL and 141.1 pg/mL
HBV DNA Polymerase (cpm) (hepatitis B virus; [10]): 43,752 cpm and 835 cpm and 10,833 cpm and 2,752 cpm and 2,454 cpm and 7,422 cpm
HBV DNA (hepatitis B virus; [11]): 742.7 pg/mL and 23 pg/mL and 472.3 pg/mL and 103.5 pg/mL and 40.4 pg/mL and 79.9 pg/mL
HBV DNA Polymerase (cpm) (hepatitis B virus; [11]): 7,841 cpm and 182 cpm and 2,115 cpm and 1,302 cpm and 506 cpm and 1,482 cpm
HBV DNA (hepatitis B virus; [12]): 718.9 pg/mL and 17.5 pg/mL and 204.2 pg/mL and 47.1 pg/mL and 15.9 pg/mL and 60.7 pg/mL
HBV DNA Polymerase (cpm) (hepatitis B virus; [12]): 5,129 cpm and 81 cpm and 1,481 cpm and 213 cpm and 131 cpm and 772 cpm
HBV DNA (hepatitis B virus; 0.25 mpk, Month 1 (follow-up), individual patients 1B-6B): 4.9 pg/mL and 23.4 pg/mL and 100.6 pg/mL and 242.5 pg/mL and 2.7 pg/mL
HBV DNA (hepatitis B virus; [13]): 492.9 pg/mL and 8.0 pg/mL and 182.6 pg/mL and 32.4 pg/mL and 9.3 pg/mL and 26.6 pg/mL
HBV DNA Polymerase (cpm) (hepatitis B virus; [13]): 3,395 cpm and 129 cpm and 2,752 cpm and 105 cpm and 45 cpm and 260 cpm
HBV DNA Polymerase (cpm) (hepatitis B virus; 0.25 mpk, Week 3, individual patients 1B-3B): 2,012 cpm and 63 cpm and 1,602 cpm
HBV DNA (hepatitis B virus; 0.25 mpk, Week 3, individual patients 1B-6B): 373.2 pg/mL and 10.6 pg/mL and 68.3 pg/mL and 31.1 pg/mL and 8.3 pg/mL and 44.2 pg/mL
HBV DNA Polymerase (cpm) (hepatitis B virus; 0.25 mpk, Week 4, individual patients 1B-3B): 834 cpm and 42 cpm and 1,076 cpm
HBV DNA (hepatitis B virus; 0.25 mpk, Week 4, individual patients 1B-6B): 237.9 pg/mL and 7.2 pg/mL and 69.6 pg/mL and 34.0 pg/mL and 7.9 pg/mL and 41.7 pg/mL
HBV DNA (hepatitis B virus; 0.25 mpk, Week 5 (after 4-week treatment), individual patients 1B-6B): 376.3 pg/mL and 24.1 pg/mL and 6.4 pg/mL and 89.9 pg/mL and 6.8 pg/mL
Mean % change of HBV DNA at Week 4 of FIAU (hepatitis B virus; 0.25 mpk, n = 6): -84%
reduction of the initial HBV DNA polymerase level (hepatitis B virus; within the first few days, FIG. 20): 80-90%
EC90 (HSV-1): ~0.05 µM
CC50 [2]: ~10 µM
